Assay results as given in ChEMBL document CHEMBL1201862, “PubChem BioAssay data set” (2004).
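Dose response: 5 concentrations. Exposure: 48 h. Format: 96-well plates. Endpoint: linear interpolation; highest concentration if not reached. Here, GI50 denotes the concentration required for 50% inhibition of growth.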 Active and inactive are the calls of the source. No stated cut-off is given here; in the data, active = GI50 up to about 1.1 µM and inactive = higher.

Experiments:
Assay in all cases: inhibition of tumour cell growth, NCI panel, 48 h
786-0 = system: 786-0
CCRF-CEM = system: CCRF-CEM
HL-60 = system: HL-60
HOP-62 = system: HOP-62
MOLT-4 = system: MOLT-4
NCI-H460 = system: NCI-H460
NCI-H522 = system: NCI-H522
OVCAR-8 = system: OVCAR-8
RXF 393 = system: RXF 393
SF-295 = system: SF-295
SK-MEL-28 = system: SK-MEL-28
TK-10 = system: TK-10
UACC-257 = system: UACC-257
HCC 2998 = system: HCC 2998
OVCAR-5 = system: OVCAR-5
SR = system: SR

SMILES | GI50 (786-0) | GI50 (CCRF-CEM) | GI50 (HL-60) | GI50 (HOP-62) | GI50 (MOLT-4) | GI50 (NCI-H460) | GI50 (NCI-H522) | GI50 (OVCAR-8) | GI50 (RXF 393) | GI50 (SF-295) | GI50 (SK-MEL-28) | GI50 (TK-10) | GI50 (UACC-257) | GI50 (HCC 2998) | GI50 (OVCAR-5) | GI50 (SR)
COC(=O)/C1=C/C2CC(/C=C(/c3ccccc3)C(=O)O1)C2 | 37.5 µM (inactive) | 19.5 µM (inactive) | 22.5 µM (inactive) | 44.2 µM (inactive) | 17.5 µM (inactive) | 32.6 µM (inactive) | 16.7 µM (inactive) | 23.1 µM (inactive) | 25.1 µM (inactive) | 32.9 µM (inactive) | 23.8 µM (inactive) | 32.7 µM (inactive) | 8.53 µM (inactive) | – | – | –
C/C(CC(=O)Nc1cccc(C)c1C)=N\NC(N)=S | > 100 µM (inactive) | 74.3 µM (inactive) | > 100 µM (inactive) | > 100 µM (inactive) | > 100 µM (inactive) | > 100 µM (inactive) | > 100 µM (inactive) | > 100 µM (inactive) | > 100 µM (inactive) | > 100 µM (inactive) | > 100 µM (inactive) | > 100 µM (inactive) | > 100 µM (inactive) | > 100 µM (inactive) | > 100 µM (inactive) | 26.2 µM (inactive)
CC(C)c1ccc(C2C3=C(N=C4SCC(=O)N42)C(=O)c2ccccc23)cc1 (stereo not drawn) | > 100 µM (inactive) | 57.3 µM (inactive) | 36 µM (inactive) | > 100 µM (inactive) | 49.7 µM (inactive) | > 100 µM (inactive) | 22.4 µM (inactive) | > 100 µM (inactive) | – | 82.8 µM (inactive) | 35.1 µM (inactive) | > 100 µM (inactive) | > 100 µM (inactive) | > 100 µM (inactive) | > 100 µM (inactive) | –
CC(C)(C)C1CCC2c3c([nH]c4ccccc34)C3C(=O)N(c4ccc(Br)cc4)C(=O)C3C2C1 (stereo not drawn) | 21.6 µM (inactive) | 16.7 µM (inactive) | 13.3 µM (inactive) | 21.6 µM (inactive) | 9.64 µM (inactive) | 17.7 µM (inactive) | – | 21.7 µM (inactive) | – | 25 µM (inactive) | 48.2 µM (inactive) | 20.5 µM (inactive) | 17.8 µM (inactive) | < 0.01 µM (active) | 23.6 µM (inactive) | –
O=C(c1cc(=O)c2ccc(O)cc2o1)c1ccc(Cl)cc1Cl | 28.2 µM (inactive) | 7.35 µM (inactive) | 1.26 µM (inactive) | 8.18 µM (inactive) | 2.81 µM (inactive) | 6.01 µM (inactive) | 9.89 µM (inactive) | 22.8 µM (inactive) | 29 µM (inactive) | 20.6 µM (inactive) | > 59.3 µM (inactive) | 38.5 µM (inactive) | 19.5 µM (inactive) | 9.75 µM (inactive) | > 74.8 µM (inactive) | –
Cc1cccc(C(C)(C)C)c1NC(=O)C(=O)Cc1nc2ccccc2s1 | > 100 µM (inactive) | – | > 100 µM (inactive) | > 100 µM (inactive) | > 100 µM (inactive) | > 100 µM (inactive) | > 100 µM (inactive) | > 100 µM (inactive) | – | > 100 µM (inactive) | > 100 µM (inactive) | > 100 µM (inactive) | > 100 µM (inactive) | > 100 µM (inactive) | > 100 µM (inactive) | –
COc1nc(=O)cc(N)n1C1OC(CO)C(O)C1O (stereo not drawn) | > 100 µM (inactive) | > 100 µM (inactive) | > 100 µM (inactive) | > 100 µM (inactive) | > 100 µM (inactive) | > 100 µM (inactive) | > 100 µM (inactive) | > 100 µM (inactive) | > 100 µM (inactive) | > 100 µM (inactive) | > 100 µM (inactive) | > 100 µM (inactive) | > 100 µM (inactive) | > 100 µM (inactive) | > 100 µM (inactive) | –
CC(C)(C)CC(C)(C)c1cc2c(O)c(c1)Cc1cc(C(C)(C)CC(C)(C)C)cc(c1O)Cc1cc(C(C)(C)CC(C)(C)C)cc(c1O)Cc1cc(C(C)(C)CC(C)(C)C)cc(c1O)Cc1cc(C(C)(C)CC(C)(C)C)cc(c1O)Cc1cc(C(C)(C)CC(C)(C)C)cc(c1O)Cc1cc(C(C)(C)CC(C)(C)C)cc(c1O)Cc1cc(C(C)(C)CC(C)(C)C)cc(c1O)C2 | > 100 µM (inactive) | > 100 µM (inactive) | > 100 µM (inactive) | > 100 µM (inactive) | > 100 µM (inactive) | > 100 µM (inactive) | > 100 µM (inactive) | > 100 µM (inactive) | > 100 µM (inactive) | > 100 µM (inactive) | > 100 µM (inactive) | > 100 µM (inactive) | > 100 µM (inactive) | > 100 µM (inactive) | > 100 µM (inactive) | –
Cc1cc(NS(=O)(=O)c2ccc(Nc3c4ccccc4nc4c(C(=O)Nc5ccc(S(N)(=O)=O)cc5)cccc34)cc2)no1 | > 100 µM (inactive) | 26.5 µM (inactive) | – | 35.4 µM (inactive) | 27 µM (inactive) | > 100 µM (inactive) | 24.2 µM (inactive) | 51.9 µM (inactive) | 90.6 µM (inactive) | > 100 µM (inactive) | 28.9 µM (inactive) | > 100 µM (inactive) | > 100 µM (inactive) | – | > 100 µM (inactive) | –
C=C(c1ccccc1N)[C@@]1(O)C[C@H](/C(=C\C)CO)C[C@@H]1NCc1ccccc1 | 20.6 µM (inactive) | 21.2 µM (inactive) | 13.3 µM (inactive) | 32.7 µM (inactive) | 18.2 µM (inactive) | 20.7 µM (inactive) | 17.1 µM (inactive) | 24.5 µM (inactive) | 16.7 µM (inactive) | 16.9 µM (inactive) | 18.3 µM (inactive) | 20.8 µM (inactive) | 17.9 µM (inactive) | 15.7 µM (inactive) | – | –
CC1OC(n2cc(Cl)c(=O)[nH]c2=O)C=C(OC(=O)c2ccccc2)C1=O (stereo not drawn) | > 100 µM (inactive) | > 100 µM (inactive) | > 100 µM (inactive) | > 100 µM (inactive) | > 100 µM (inactive) | > 100 µM (inactive) | – | > 100 µM (inactive) | > 100 µM (inactive) | > 100 µM (inactive) | > 100 µM (inactive) | > 100 µM (inactive) | > 100 µM (inactive) | – | – | –
S=P(c1ccccc1)(c1ccccc1)C1(C2(P(=S)(c3ccccc3)c3ccccc3)CC2)CC1 | > 100 µM (inactive) | > 100 µM (inactive) | – | > 100 µM (inactive) | > 100 µM (inactive) | > 100 µM (inactive) | > 100 µM (inactive) | > 100 µM (inactive) | > 100 µM (inactive) | > 100 µM (inactive) | > 100 µM (inactive) | > 100 µM (inactive) | – | > 100 µM (inactive) | > 100 µM (inactive) | > 100 µM (inactive)
O=C(CSc1nc(-c2ccccc2)c(-c2ccccc2)[nH]1)N/N=C/c1ccc(O)cc1 | 22.6 µM (inactive) | 23.3 µM (inactive) | 20 µM (inactive) | 19.3 µM (inactive) | 15.7 µM (inactive) | 20 µM (inactive) | 20.2 µM (inactive) | 17.2 µM (inactive) | 24.2 µM (inactive) | 22.4 µM (inactive) | 32.1 µM (inactive) | 27.6 µM (inactive) | 4.86 µM (inactive) | 19.6 µM (inactive) | – | 16.4 µM (inactive)
O=S(=O)(/C=C/C(=C/c1ccccc1)S(=O)(=O)c1ccccc1)c1ccccc1 | 1.77 µM (inactive) | 0.778 µM (active) | 0.543 µM (active) | 1.94 µM (inactive) | 1.52 µM (inactive) | 1.78 µM (inactive) | 1.45 µM (inactive) | 1.63 µM (inactive) | 1.73 µM (inactive) | 1.66 µM (inactive) | 1.49 µM (inactive) | 1.85 µM (inactive) | 1.55 µM (inactive) | 1.95 µM (inactive) | – | 1.51 µM (inactive)
Cc1cc(NS(=O)(=O)c2ccc(NC(=O)c3cccc4c(N)c5ccccc5nc34)cc2)no1 | 17.9 µM (inactive) | 21.4 µM (inactive) | – | 29.6 µM (inactive) | 28.9 µM (inactive) | 32.9 µM (inactive) | 17 µM (inactive) | 21.8 µM (inactive) | 16.3 µM (inactive) | 23.6 µM (inactive) | 22.1 µM (inactive) | 43.1 µM (inactive) | – | – | 28.8 µM (inactive) | –
COc1cc(Nc2nc3cc(C)ccc3nc2-c2ccccc2)cc(OC)c1OC | 14.7 µM (inactive) | 29.8 µM (inactive) | 22.5 µM (inactive) | – | 18.3 µM (inactive) | 15.8 µM (inactive) | 25.6 µM (inactive) | 36.5 µM (inactive) | – | 20.9 µM (inactive) | 16.6 µM (inactive) | 42 µM (inactive) | 47.5 µM (inactive) | 12.3 µM (inactive) | > 100 µM (inactive) | 16.2 µM (inactive)
COC(=O)c1cccc2cccc(C(=O)Nc3ccc(Cl)cc3)c12 | > 100 µM (inactive) | 2.26 µM (inactive) | 0.706 µM (active) | – | 3.1 µM (inactive) | 10.3 µM (inactive) | 13.7 µM (inactive) | > 79.8 µM (inactive) | > 100 µM (inactive) | 1.72 µM (inactive) | > 100 µM (inactive) | > 100 µM (inactive) | > 100 µM (inactive) | 6.17 µM (inactive) | > 86.9 µM (inactive) | 17.1 µM (inactive)
C#CCN(N=O)C(=O)NCCCCC(NC(=O)OCc1ccccc1)C(=O)OCc1ccccc1 (stereo not drawn) | > 100 µM (inactive) | 19.3 µM (inactive) | 29.9 µM (inactive) | > 100 µM (inactive) | 20.7 µM (inactive) | 98.2 µM (inactive) | 15.3 µM (inactive) | 38.9 µM (inactive) | 25.4 µM (inactive) | > 100 µM (inactive) | 49.5 µM (inactive) | > 100 µM (inactive) | 37.2 µM (inactive) | > 100 µM (inactive) | > 100 µM (inactive) | –
